Test results: patent US20070244076A1, “Site and Rate Selective Prodrug Formulations of D609 with Antioxidant and Anticancer Activity” (priority 2003, published 2007)
Structures can show the parent of a compound that is named as a salt. Numbered stars: 1 amine (or outer) side, 2 acyl side, 3 side chain; on linkers, the order of the positions; unused ones are H or OH. Bridge positions count the residues as written; N and C are the ends. Square brackets hold non-standard residues; d marks the D form. Peptide text beside a SMILES is read from it. I, II: the chains in the order shown. Actinocin(9to1) = Cc1c2oc3c(C)ccc(C(=O)[*:1])c3nc-2c(C(=O)[*:2])c(N)c1=O; NMeV = CN[C@H](C(=O)O)C(C)C; Sar = CNCC(=O)O

Legend:
alkaline phosphatase = details: 222 μM, 3.125 U/ml, pH 9.0, 37° C.
[1] = cited from earlier work
[2] = previously untreated chronic myelogenous leukemia; cited from earlier work
[3] = Chevion et al., 1997; cited from earlier work
[4] = test system: Porcine liver esterase (PLE); test: Esterase-catalyzed hydrolysis of D609 prodrugs; type: in vitro ADME; details: for T1/2 / kobs: 300 μM, 0.1 unit/ml PLE, 37° C., pH 7.4
Description: FIG. 18A, FIG. 18B, FIG. 18C: Esterase-catalyzed hydrolysis of D609 prodrugs. Prodrugs (300 μM in 15% DMSO/PBS, pH 7.4), 1 (FIG. 18A), 2 (FIG. 18B) and 3 (FIG. 18C), were incubated at 37° C. in the presence of 0.1 unit/ml PLE. […] The data are presented as the mean±SEM of three independent assays.
To determine the hydrolytic property of D609 prodrugs 1, 2, and 3 (300 μM in 15% DMSO/PBS, pH7.4), these prodrugs were incubated with 0.1 unit/ml PLE at 37° C. After various times during incubation, the rate of hydrolysis of these D609 prodrugs was monitored by HPLC analysis. […] The concentration of D609 (μM) was calculated based on a linear D609-DTNB standard curve. The pseudo-first-order plots for the hydrolysis of these prodrugs were constructed from the logarithm of remaining ester versus time (FIG. 18). The end points of the reaction (150 min) were defined as when the hydrolysis of these prodrugs was over 99% complete and the release of D609 reached plateau. The pseudo-first-order rate constant (Kobs) and T1/2 (=0.693/Kobs) were calculated based on the slope of the linear portion of the curve for each of these prodrugs and are presented in Table 1 (Gilmer et al., 2002).

[5] = test system: sphingomyelin synthase (SMS); test: SMS activity in U937 cell lysates with inhibitor added (cell lysate-based in vitro assay); type: biochemical, Human; details: 30 min at 30° C.
Description: (§1) In this study, p-nitrophenyl-phosphorylcholine (pNPP, 40 mM) was incubated with 2 U/ml phospholipase C (Type XI from B. cereus) in the presence or absence of various concentrations of inhibitors for 2 hrs at 37° C. The amount of the cleaved substrate pNPP was quantified by determination of the optical density at 410 nm using an ELISA reader. The results are expressed as percent of vehicle control and presented as means±SEM (n=3) (FIG. 9A). NBD-C6-ceramide and PC were incubated with U937 cell lysates containing 50 μg protein in the presence or absence of various concentrations of inhibitors for 30 min at 30° C. The formation of NBD-C6-sphingomyelin as analyzed by TLC and quantified by determination of the fluorescent intensity of NBD-C6-sphingomyelin using a phosphorimager. The results are expressed as percent of vehicle control (FIG. 9B). U937 cells were incubated with different concentrations of inhibitors for 48 hours.

[6] = molecular target: phospholipase C (Type XI from B. cereus) (Bacillus cereus, UniProt P09598); type: biochemical; details: 2 hrs at 37° C., pNPP 40 mM
phospholipase C (Type XI from B. cereus), sequence (P09598 39-283 limits assumed): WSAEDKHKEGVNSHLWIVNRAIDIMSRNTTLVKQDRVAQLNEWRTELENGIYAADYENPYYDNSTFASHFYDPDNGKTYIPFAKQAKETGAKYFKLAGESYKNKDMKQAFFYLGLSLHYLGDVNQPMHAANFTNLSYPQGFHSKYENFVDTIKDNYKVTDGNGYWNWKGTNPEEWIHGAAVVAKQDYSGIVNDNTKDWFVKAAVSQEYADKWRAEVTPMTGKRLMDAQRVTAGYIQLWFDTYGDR
Description: as §1

U937 cells = test: U937 apoptosis, Annexin V-FITC staining and flow cytometry; type: cell-based, Human; details: for induction of apoptosis: 24 hr, low dose of H7 (25 μM) or ceramide (5 μM)
Description: It is well known that ceramide functions as a negative cell regulator that can induce cell cycle arrest, senescence or apoptosis. In contrast, DAG stimulates cell proliferation and promotes cell survival, primarily via activation of PKC. To determine if the changes in the levels of ceramide and DAG resulting from SMS inhibition contribute to D609-induced apoptosis in U937 cells, the cells were incubated with vehicle, H7 (a PKC inhibitor), ceramide, or H7 plus ceramide. U937 cells (1×10^6/ml) were incubated with 5 μM C6-ceramide and 25 μM H7 alone or combination for 24 hr at 37° C. Apoptosis of the cells was measured by Annexin V-FITC staining and flow cyotmetry and expressed as percent of Annexin V positive cells. a, p<0.05 vs Control; b, p<0.05 vs H7- or C6-treated cells (FIG. 11).
In these experiments, U937 cells were pre-incubated with PMA (25 nM) for 30 min. and then were cultured with vehicle or D609 (150 μM) for 24 hrs.

[7] = cited from earlier work; remark: listed apart in the source

CC(C)(C)OP(=O)(OCSC(=S)OC1CC2CC1C1CCCC21)OC(C)(C)C (stereo not drawn) [compound 7, S-(methylenoxy)-D609, di(t-butoxy)phosphoryl]
time to complete hydrolysis (alkaline phosphatase): ≤ 60 min

COc1cccc2c1C(=O)c1c(O)c3c(c(O)c1C2=O)C[C@@](O)([C@H](C)O)C[C@@H]3O[C@H]1C[C@H](N)[C@H](O)[C@H](C)O1 [daunorubicinol]
half-life (elimination) ([1]; in vivo): about 27 hr

O=C(O)CCCc1ccc(N(CCCl)CCCl)cc1 [Chlorambucil, 4-[bis(2-chlorethyl)amino] benzenebutanoic acid]
oral absorption ([1]; in vivo): rapidly and completely absorbed from the gastrointestinal tract

CS(=O)(=O)OCCCCOS(C)(=O)=O [Busulfan, 1,4-butanediol dimethanesulfonate]
adults obtaining hematologic remission [2]: Approximately 90%

COc1cccc2c1C(=O)c1c(O)c3c(c(O)c1C2=O)C[C@@](O)(C(C)=O)C[C@@H]3O[C@H]1C[C@H](N)[C@H](O)[C@H](C)O1 [Daunorubicin, 5,12-Naphthacenedione, (8S-cis)-8-acetyl-10-[(3-amino-2,3,6-trideoxy-a-L-lyxo-hexanopyranosyl)oxy]-7,8,9,10-tetrahydro-6,8,11 trihydroxy-10-methoxy-, hydrochloride]
oral absorption ([1]; in vivo): Oral absorption is poor
half-life (elimination) ([1]; in vivo): about 19 hr

O=C1O[C@H]([C@@H](O)CO)C(O)=C1O [vitamin C]
E1/2 [3]: 380 mV

O=NN(CCCl)C(=O)NC1CCCCC1 [Lomustine, 1-(2-chloro-ethyl)-3-cyclohexyl-1 nitrosourea]
radioactivity excreted as degradation products ([1]; oral, 30 mg/m^2 to 100 mg/m^2, within 24 hours): about half

CC(C)(C)C(=O)OCSC(=S)OC1CC2CC1C1CCCC21 (stereo not shown) [Prodrug 3, S-methyleneoxypivalyl D609]
T1/2 [4]: 23.22 min
kobs [4]: 0.02984 min⁻¹
% D609 (molar recovery of D609) ([4]; complete hydrolysis by esterase): 60%

S=C(S)OC1CCCCC1 [cyclohexyl xanthate]
inhibition of SMS activity [5]: had no effect
inhibition of PC-PLC activity [6]: dose-dependently inhibited

CC[C@]1(O)C[C@@H]2CN(CCc3c([nH]c4ccccc34)[C@@](C(=O)OC)(c3cc4c(cc3OC)N(C)[C@H]3[C@@](O)(C(=O)OC)[C@H](OC(C)=O)[C@]5(CC)C=CCN6CC[C@]43[C@@H]65)C2)C1 [Vinblastine]
oral absorption ([1]; in vivo): Unpredictable absorption
excreted intact into the urine ([1]; in vivo): Approximately 15%
recovered in the feces after biliary excretion ([1]; in vivo): about 10%
plasma half-life after distribution (first) ([1]; intravenous injection): approximately 1 hours
plasma half-life after distribution (second) ([1]; intravenous injection): ~72000 s
peak concentration in plasma ([1]; usual clinical doses): approximately 0.4 mM

OC1CC2CC1C1CCCC21 (stereo not shown) [Tricyclodecanol]
inhibition of SMS activity [5]: devoid of any of these activities
inhibition of PC-PLC activity [6]: devoid of any of these activities

CCCCCCCCCCCCCC=CC(O)C(CO)NC(=O)CCCCC (stereo not shown) [ceramide]
induction of apoptosis (U937 cells): modest

COc1cccc2c1C(=O)c1c(O)c3c(c(O)c1C2=O)C[C@@](O)(C(=O)CO)C[C@@H]3O[C@H]1C[C@H](N)[C@H](O)[C@H](C)O1 [Doxorubicin, 5,12-Naphthacenedione, (8s-cis)-10-[(3-amino-2,3,6-trideoxy-α-L-lyxo-hexopyranosyl)oxy]-7,8,9,10-tetrahydro-6,8,11-trihydroxy-8-(hydroxyacetyl)-1-methoxy-hydrochloride]
oral absorption ([1]; in vivo): absorbed poorly
half-life (elimination) ([1]; in vivo): about 30 hr

CC(=O)OCSC(=S)OC1CC2CC1C1CCCC21 (stereo not shown) [Prodrug 1, S-methyleneoxyacetyl D609]
T1/2 [4]: 3.34 min
kobs [4]: 0.2074 min⁻¹

CCCCCCCCCCCCCC(=O)O[C@@H]1[C@@H](C)[C@@]2(O)[C@@H](C=C(CO)C[C@]3(O)C(=O)C(C)=C[C@@H]23)[C@@H]2C(C)(C)[C@]12OC(C)=O [PMA]
effect on D609-induced apoptosis (U937 cells; PMA 25 nM 30 min before D609 150 μM, 24 hrs): partially attenuated D609-induced apoptosis

N.N.[Cl][Pt][Cl] [Cisplatin]
oral absorption ([1]; in vivo): not absorbed orally

Cc1c2oc3c(C)ccc(C(=O)N[C@@H]4C(=O)N[C@H](C(C)C)C(=O)N5CCC[C@H]5C(=O)N(C)CC(=O)N(C)[C@@H](C(C)C)C(=O)O[C@@H]4C)c3nc-2c(C(=O)N[C@@H]2C(=O)N[C@H](C(C)C)C(=O)N3CCC[C@H]3C(=O)N(C)CC(=O)N(C)[C@@H](C(C)C)C(=O)O[C@@H]2C)c(N)c1=O [Actinomycin D] (I: T[dV]P[Sar][NMeV] / II: T[dV]P[Sar][NMeV]; ester I:1-I:C, II:1-II:C; linker I:N-II:N via Actinocin(9to1))
excreted intact into the bile ([1]; in vivo): Half of the dose
excreted intact into the urine ([1]; in vivo): 10%
half-life (elimination) ([1]; in vivo): about 36 hr
passage of the blood-brain barrier ([1]; in vivo): does not pass the blood-brain barrier

CO[C@@]12[C@H](COC(N)=O)C3=C(C(=O)C(C)=C(N)C3=O)N1C[C@@H]1N[C@@H]12 [Mitomycin]
time required to reduce the serum concentration by 50% ([7]; 30 mg. bolus injection): 17 min
dose excreted unchanged in the urine ([7]; in vivo): Approximately 10%

CC[C@]1(O)C[C@H]2CN(CCc3c([nH]c4ccccc34)[C@@](C(=O)OC)(c3cc4c(cc3OC)N(C=O)[C@H]3[C@@](O)(C(=O)OC)[C@H](OC(C)=O)[C@]5(CC)C=CCN6CC[C@]43[C@@H]65)C2)C1 [Vincristine]
oral absorption ([1]; in vivo): Unpredictable absorption
terminal half-life ([1]; plasma): about 24 hours

CC1CNCCN1S(=O)(=O)c1cccc2cnccc12 (stereo not shown) [Prodrug H7]
induction of apoptosis (U937 cells): modest
